Reference: US6893630B2, “Anti-microbial antiperspirant products” (Unilever Home & Personal Care USA, division of Conopco, Inc., priority 2000, dated 2005)
Entries after “also recorded” stand apart in the source; their conditions may differ. Read-outs that look alike come from different tables or passages of the source.

Legend:
relevant micro-organism = details: cited from earlier work
[1] = system: Staphylococcus epidermidis; assay: Anti-microbial performance of chelators: growth inhibition in semi-synthetic medium by optical density; type: cell-based; details: for "micro-molar active" criterion (significant inhibition of growth, at least 30%, at 3×10^−6 mol.dm^−3 or less): S. epidermidis; for Inhibition of growth (%): chelator 3×10^−6 mol.dm^−3, 16 hours at 37° C., optical density at 600 nm vs control medium
Description: An axillary isolate of Staphylococcus epidermidis was grown overnight in 100 ml of tryptone soy broth (TSB, Oxoid Ltd). 10 ml of this culture was taken and subjected to centrifugation. The separated cells were re-suspended in 10 ml of phosphate buffered saline and the centrifugation procedure repeated. The washed cells were re-suspended in 10 ml of phosphate buffered saline to give the inoculum. 100 μl of the inoculum was added to 100 ml of semi-synthetic medium (SSM) containing (NH4)2SO4 (0.066 g), MgSO4.7H2O (0.012 g), KCl (0.1 g), KH2PO4 (0.27 g), Na2HPO4 (1.43 g), thiamin (0.1 mg), biotin (0.05 mg), Peptone P (0.05 g), and glucose (2.0 mmole) which had been previously sterilised by autoclaving at 121° C. for 20 minutes. The pH of the SSM was adjusted to 6.7 with HCl after sterilisation, prior to addition of the inoculum. This control medium was utilised in all of the in vitro inhibition studies. The chelator-containing test media were prepared in a similar manner, the chelator being introduced at a concentration of 3×10^−6 mol.dm^−3 before the pH adjustment with HCl.
100 μl of the S. epidermidis inoculum was introduced into the control medium and into test media containing the chelators indicated in Table 2. The cultures were inoculated at 37° C. (with agitation at 200 rpm) for 16 hours, and the optical density of the cultures measured at 600 nm to determine the extent of bacterial growth. By comparison of the optical density of the culture in the presence of chelating agent, to that of the control, the percentage inhibition of growth was established. (Optical density measurements were made on 1 in 4 dilutions of the cultures with 0.9% (w/v) saline, using 1 cm path length cuvettes, on a Pharmacia Biotech Ultrospec 200 Spectrophotometer.)

Structure (SMILES) | MIC (relevant micro-organism; literature values) | "micro-molar active" criterion (significant inhibition of growth, at least 30%, at 3×10^−6 mol.dm^−3 or less) [1] | Inhibition of growth (%) [1] [%] | MIC (relevant micro-organism; stated by contrast, no source given)
CC(C)=CCCC(C)=CCCC(C)=CCO [farnesol, 3,7,11-trimethyldodeca-2,6,10-trienol] | ca. 25 μg.ml^−1 | – | – | –
O=C(O)CN(CCN(CC(=O)O)CC(=O)O)CC(=O)O [EDTA, ethylenediaminetetraacetic acid] | – | exclude; also recorded: fail this criterion | 0 | –
O=C(O)CN(CCN(CC(=O)O)CC(=O)O)CCN(CC(=O)O)CC(=O)O [DTPA, diethylenetriaminepentaacetic acid] | – | capable of achieving significant inhibition; also recorded: meet the criterion | 56.5 | –
O=C(O)CN(CC(=O)O)[C@@H]1CCCC[C@H]1N(CC(=O)O)CC(=O)O (relative stereo) [CDTA, trans-1,2-diaminocyclohexane-N,N,N′,N′-tetraacetic acid] | – | exclude; also recorded: fail this criterion | 12.3 | –
CCO [ethanol] | – | – | – | greater than 1 mg.ml^−1
Oc1cc(Cl)ccc1Oc1ccc(Cl)cc1Cl [triclosan, 2′,4,4′-trichloro,2-hydroxy-diphenyl ether] | 0.01 to 10 µg/mL | – | – | –
O=C(O)CN(CCN(CCN(CC(=O)O)CC(=O)O)CC(=O)O)CCN(CC(=O)O)CC(=O)O [TTHA, triethylenetetraaminehexaacetic acid] | – | capable of achieving significant inhibition; also recorded: meet the criterion | 56.3 | –
